According to patent publication US20230124969A1, “OPHTHALMIC FORMULATION COMPRISING N-[5-(AMINOSULFONYL)-4-METHYL-1,3- THIAZOL-2-YL]-N-METHYL-2-[4-(2-PYRIDINYL)PHENYL]ACETAMIDE HEMIHYDRATE” (AiCuris GmbH & Co. KG, priority 2020, published 2023):
Where two headings read alike, the source gives them in different places.

Columns and labels:
Assay type in all cases: physicochemical
[1] = Sterile filtration / filter compatibility: HPLC assay before and after filtration; conditions: for assay data before and after filtration: Example 3, 0.05 mg/mL DS, PEG200 stock diluted in GenTeal tears
Experimental: • Dilute 500 µL of each sample with 500 µL ACN/MeOH/H2O ratio 25:25:50 + 1% HAc (1:2) • Mix it 5 s by vortexing
• Dilute 250 µL of each sample with 730 µL ACN/MeOH/H2O ratio 25:25:50 + 1% HAc and add 20 µL ACN/DMSO 4:1 (1:4) • Mix it 5 s by vortexing
(§1) An amount of 1.5 mL stock solution was diluted with 28.5 mL of the respective artificial tears solution (either GenTeal® Tears or Thera® Tears or Visine® tears) in a beaker and stirred for 2 min with a magnet stirrer. The pH value was determined and samples were taken before and after sterile filtration. The solutions were filtered through CA (cellulose acetate) 0.22 µm filter system. The content of the beaker was withdrawn and respectively 14 mL of the prepared formulation were added to two empty 50 mL tubes. In addition, one empty 2 mL tube was provided and 1.5 mL of the prepared formulation was added to the 2 mL tube. The samples were stored at RT and at a temperature in the range of from 2-8° C. over 5 weeks.
The testing was repeated one time to have samples in duplicate (n=2). An amount of 6 mL of the ophthalmic formulation was withdrawn with a 10 mL syringe. An amount of 1 mL was used to determine the final concentration before filtration. The syringe was connected with a PA 0.2 µm filter via Luer Lok and the solution was filtered. Another sample was taken to determine the final concentration after filtration.
The filter was then disconnected from the syringe and an amount of 3 mL DMSO was withdrawn with the used 10 mL syringe. Then, the syringe was shaken smoothly. An amount of 1 mL was used to determine the final concentration after rinsing. The syringe was again connected to the used PA 0.2 µm filter via Luer Lok the DMSO was filtered. A sample was taken to determine the final concentration after washing.
This protocol was repeated for all tested filters: PA / Nylon, PALE / Nylon, PTFE, PVDF, CM, CA, RC, PP, PES. Each filter contained a filter material with a pore size of 0.2 µm and of 0.45 µm.
The testing was repeated to have samples in triplicate (n=3). An amount of 6 mL of the ophthalmic formulation was withdrawn with a 10 mL syringe. An amount of 1 mL was used to determine the final concentration before filtration. The syringe was connected with the filter via Luer Lok and the solution was filtered. Another sample was taken to determine the final concentration after filtration.
The filter was disconnected from the syringe and an amount of 2 mL DMSO was withdrawn with a fresh 10 mL syringe. The syringe was again connected to the used filter via Luer Lok and the DMSO was filtered. […]
(§2) The amount of hydrochloric acid was added as determined in the pre-testing to adjust the pH to 6.0 and a sample was taken to determine the final concentration before filtration. […]

[2] = Preparation of 1 mg/mL PEG400 stock solution and ophthalmic formulation with different drug substances (experiments 8-10); conditions: for suitability as drug substance for preparation of the ophthalmic formulation: three tested drug substances, experiments 1-10
Experimental: All liquids and the DS were equilibrated to ≥ 20° C. An amount of 20 ml of PEG 400 was added to a 50 mL tube and 20 mg of DS were dissolved therein. The solution was mixed by vortexing the tube for 5 s and the tube was shaken until the DS was dissolved.
To study whether Pritelivir free base hemihydrate can be replaced with Pritelivir mesylate, Experiment 8 was repeated with Pritelivir mesylate monohydrate as DS.
The preparation protocol of Example 8 was followed also for the ophthalmic formulation containing Pritelivir mesylate monohydrate as drug substance.
To study whether Pritelivir free base hemihydrate can be replaced with Pritelivir maleate, Experiment 8 was repeated with Pritelivir maleate as DS.

[3] = In-use stability of ophthalmic formulations stored at room temperature and 2-8 °C
Experimental: To study the in-use stability over 5 weeks at room temperature (RT) and at a temperature in the range of from 2° C. - 8° C., stock solutions with a concentration of 1.0 mg/mL of DS were prepared in PEG200 and in PEG400. The different stock solutions were diluted in 3 different compositions of artificial tears to a final concentration of 0.05 mg DS per mL ophthalmic formulation.
as §1, with “weeks. […]” for “weeks.”
To study the impact of the pH value on the tendency of the ophthalmic formulation to degrade and precipitate 3 different compositions of artificial tears were adjusted to pH 4.0, 5.0 and 6.0. A stock solution of Pritelivir free base hemihydrate in PEG400 at a concentration of 1.0 mg/mL was prepared. The stock solutions were diluted in the pH adjusted artificial tears at a Pritelivir free base hemihydrate concentration of 0.05 mg/mL and filtered through a RC 0.2 µm sterile filter. It turned out to be preferable to carry out the dilution step for each sample one after the other to keep the time before the filtration step short.
All samples were prepared as triplicates. One sample was prepared after the other to keep the preparation time short and to minimize the risk of precipitation. The stock solution was diluted with pH adjusted artificial tears solution in a tube and gently mixed. A sample was taken to determine the final concentration. An amount of 20 mL of the tube was withdrawn with a 20 mL syringe. Then, the syringe was connected to the RC […] filter via Luer Lok and the solution was filtered in two portions of 10 mL each into two 50 mL tube. Another sample was taken to determine the final concentration after filtration.
The samples were stored at room temperature and at a temperature in the range of from 2° C.-8° C. over 4 weeks.
To determine an acceptable pH value for ophthalmic use, a stock solution of Pritelivir free base hemihydrate in PEG400 was prepared at a concentration 1.0 mg/mL. […]
as §2

[4] = Pre-test: PEG 200 stock solutions diluted in GenTeal Tears, visual check for precipitation (Example 1); conditions: stock solution in PEG 200 diluted with GenTeal tears, visual inspection
Experimental: In order to prepare the new ophthalmic formulation the drug substance concentrations of both i) stock solution and ii) drug product which is administered to the patient need to be determined. For that propose, a stock solution with different concentrations of Pritelivir free base hemihydrate in PEG 200 was diluted in GenTeal® tears and the precipitation was checked over time. All liquids and the DS were equilibrated to ≥ 20° C. Seven 10 mL tubes were provided. In each of these tubes, 5 ml of PEG 200 were added and the required amount of DS was dissolved therein to provide the following stock solutions: 30 mg/mL, 25 mg/mL, 20 mg/mL, 10 mg/mL, 5 mg/mL, 1 mg/mL, 0.05 mg/mL. The solutions were mixed by vortexing the tubes for 5 s and the tubes were shaken until the DS was dissolved. The stock solutions were diluted with GenTeal® tears and the pH value was measured. After that the samples were checked for precipitation by visual inspection.

Molecule | assay level after filtration ([1]; Comparative Example 1, protocol of Example 8, RC 0.2 µm filter) | solubility in PEG400 / preparation of stock solution [2] | precipitation ([2]; Comparative Example 1, protocol of Example 8 (PEG400, Visine Tears, 0.1 M HCl)) | suitability as drug substance for preparation of the ophthalmic formulation [2] | solubility in PEG400 / preparation of stock solution ([2]; at a concentration of 1 mg/mL) | impurities on storage ([3]; Example 6, PEG400 stock diluted with GenTeal Tears, 0.05 mg/mL, after 1 week at room temperature) | time over which samples were stable ([3]; Example 6, PEG400 stock diluted with GenTeal Tears, 0.05 mg/mL, stored at 2-8° C.) [week] | stability in most artificial tears solutions ([3]; pH 4.0) | stability for an ophthalmic formulation ([3]; pH between 6.0 and 7.0, formulation contains glycerin, hypromellose and polyethylene glycol 400) | assay data before and after filtration ([1]; filter material PFTE 0.2 µm) | assay data before and after filtration ([1]; filter material RC 0.2 µm) | assay content before and after filtration ([1]; Example 6, 1 mg/mL PEG400 stock diluted with GenTeal Tears to 0.05 mg/mL, RC 0.2 µm filter, six samples) | drug load of ophthalmic formulation obtainable without any visually detectable precipitation [4] [mg/mL]
N-[5-(amino-sulfonyl)-4-methyl-1,3-thiazol-2-yl]-N-methyl-2-[4-(2-pyridinyl)phenyl] acetamide mesylate monohydrate [Pritelvir mesylate monohydrate] | decreased significantly | not soluble | Precipitation was observed | insolubility and precipitation problems | – | – | – | – | – | – | – | – | –
Cc1nc(N(C)C(=O)Cc2ccc(-c3ccccn3)cc2)sc1S(N)(=O)=O.O=C(O)/C=C\C(=O)O [Pritelivir maleate, N-[5-(aminosulfonyl)-4-methyl-1,3-thiazol-2-yl]-N-methyl-2-[4-(2-pyridinyl)phenyl]acetamide maleate] | – | – | – | insolubility and precipitation problems | not possible | – | – | – | – | – | – | – | –
Cc1nc(N(C)C(=O)Cc2ccc(-c3ccccn3)cc2)sc1S(N)(=O)=O [Pritelivir free base hemihydrate, N-[5-(aminosulfonyl)-4-methyl-1,3-thiazol-2-yl]-N-methyl-2-[4-(2-pyridinyl)phenyl]acetamide hemihydrate] | – | – | – | suitable | – | increase of impurities | 1 | not stable | sufficiently stable | identical values | identical values | comparable | 24
